Test results as given in US12122761B2, “2-azaspiro[3.4]octane derivatives as M4 agonists” (NOVARTIS AG, priority 2019, dated 2024).

Assays:
[1] = molecular target: T1, human cloned CHRM2 receptor (M2_CHO cells) (Homo sapiens, UniProt P08172); test: CHRM2 Ca++ Flux Assay (agonist mode, FDSS 7000EX); type: cell-based; conditions: for M2 FDSS PA: Percent Activity measured to EC100 of Carbachol; for EC50: agonist mode, geometric mean if tested more than once, read-out: M2 FDSS EC50
T1 construct: expressed in transfected cells; host or cells: CHO-K1
T1 sequence (P08172 1-466): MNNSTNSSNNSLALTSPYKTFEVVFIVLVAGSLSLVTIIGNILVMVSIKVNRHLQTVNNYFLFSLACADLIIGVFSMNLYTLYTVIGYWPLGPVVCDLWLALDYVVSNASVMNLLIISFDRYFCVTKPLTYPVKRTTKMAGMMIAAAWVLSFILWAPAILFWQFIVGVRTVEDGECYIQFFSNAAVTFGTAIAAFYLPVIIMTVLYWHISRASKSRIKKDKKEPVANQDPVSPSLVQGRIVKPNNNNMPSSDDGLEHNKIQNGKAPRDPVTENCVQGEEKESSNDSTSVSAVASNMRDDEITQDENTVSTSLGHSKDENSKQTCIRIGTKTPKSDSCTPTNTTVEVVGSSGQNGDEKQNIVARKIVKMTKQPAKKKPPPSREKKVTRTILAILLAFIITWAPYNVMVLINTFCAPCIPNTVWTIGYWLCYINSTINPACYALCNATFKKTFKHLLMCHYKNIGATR
In short: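 Agonist-mode Ca++ flux in CHO-K1 cells stably expressing human CHRM2, dye-loaded, then held 60 min at room temperature in buffer with 20 μM ATP before compound addition; traces read over 3 minutes. Four-parameter fit of triplicate wells; percent activity relative to Carbachol EC100.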

[2] = molecular target: T2, human cloned CHRM5 receptor (M5_CHO) (Homo sapiens, UniProt P08912); test: CHRM5 Ca++ Flux Assay (agonist mode, FDSS 7000EX); type: cell-based; conditions: for M5 FDSS PA: Percent Activity measured to EC100 of Carbachol; for EC50: agonist mode, geometric mean if tested more than once, read-out: M5 FDSS EC50
T2 construct: expressed in transfected cells; host or cells: CHO (M5_CHO)
T2 sequence (P08912 1-532): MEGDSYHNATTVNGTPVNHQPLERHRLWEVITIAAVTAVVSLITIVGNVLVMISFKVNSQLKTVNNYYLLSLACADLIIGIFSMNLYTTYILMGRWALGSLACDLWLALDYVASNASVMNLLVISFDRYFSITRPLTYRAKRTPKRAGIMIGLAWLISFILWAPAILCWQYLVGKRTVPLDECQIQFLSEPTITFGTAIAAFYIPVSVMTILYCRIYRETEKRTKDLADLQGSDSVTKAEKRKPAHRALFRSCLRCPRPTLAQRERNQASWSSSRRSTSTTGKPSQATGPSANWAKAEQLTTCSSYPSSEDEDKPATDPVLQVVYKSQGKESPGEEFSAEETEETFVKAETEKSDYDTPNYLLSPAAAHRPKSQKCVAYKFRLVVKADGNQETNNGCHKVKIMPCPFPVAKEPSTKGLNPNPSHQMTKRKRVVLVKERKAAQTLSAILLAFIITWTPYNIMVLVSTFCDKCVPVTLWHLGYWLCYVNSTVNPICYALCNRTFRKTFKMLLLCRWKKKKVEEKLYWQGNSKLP
In short: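 CHO-K1 cells stably expressing human M3 or M5 receptor were dye-loaded for at least 1 h in HBSS with 20 mM HEPES and 2.5 mM probenecid, then given 11-point compound doses in triplicate.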

| Structure (SMILES) | M2 FDSS PA [1] [%] | EC50 [1] [µM] | M5 FDSS PA [2] [%] | EC50 [2] [µM] |
| --- | --- | --- | --- | --- |
| Fc1ccc(OC2CC3(COC3)C2)c(C2CCN([C@@H]3CCC4(C3)CN(c3cncnc3)C4)CC2)c1 (single isomer, unassigned) [Example 10E, (R)-6-(4-(2-((2-oxaspiro[3.3]heptan-6-yl)oxy)-5-fluorophenyl)piperidin-1-yl)-2-(pyrimidin-5-yl)-2-azaspiro[3.4]octane or (S)-6-(4-(2-((2-oxaspiro[3.3]heptan-6-yl)oxy)-5-fluorophenyl)piperidin-1-yl)-2-(pyrimidin-5-yl)-2-azaspiro[3.4]octane] | 11 | 3.99 | 0 | > 25 |
| Fc1ccc(OC2CC3(COC3)C2)c(C2CCN([C@@H]3CCC4(C3)CN(c3cncnc3)C4)CC2)c1 (single isomer, unassigned) [Example 10F, (R)-6-(4-(2-((2-oxaspiro[3.3]heptan-6-yl)oxy)-5-fluorophenyl)piperidin-1-yl)-2-(pyrimidin-5-yl)-2-azaspiro[3.4]octane or (S)-6-(4-(2-((2-oxaspiro[3.3]heptan-6-yl)oxy)-5-fluorophenyl)piperidin-1-yl)-2-(pyrimidin-5-yl)-2-azaspiro[3.4]octane] | 0 |  | 0 | > 25 |
| Fc1ccc(OC2CCOCC2)c(C2CCN([C@@H]3CCC4(C3)CN(c3cncnc3)C4)CC2)c1 (single isomer, unassigned) [Example 10G, (R)-6-(4-(5-fluoro-2-((tetrahydro-2H-pyran-4-yl)oxy)phenyl)piperidin-1-yl)-2-(pyrimidin-5-yl)-2-azaspiro[3.4]octane or (S)-6-(4-(5-fluoro-2-((tetrahydro-2H-pyran-4-yl)oxy)phenyl)piperidin-1-yl)-2-(pyrimidin-5-yl)-2-azaspiro[3.4]octane] | 0 |  | 0 | > 25 |
| Fc1ccc(OC2CCOCC2)c(C2CCN([C@@H]3CCC4(C3)CN(c3cncnc3)C4)CC2)c1 (single isomer, unassigned) [Example 10H, (R)-6-(4-(5-fluoro-2-((tetrahydro-2H-pyran-4-yl)oxy)phenyl)piperidin-1-yl)-2-(pyrimidin-5-yl)-2-azaspiro[3.4]octane or (S)-6-(4-(5-fluoro-2-((tetrahydro-2H-pyran-4-yl)oxy)phenyl)piperidin-1-yl)-2-(pyrimidin-5-yl)-2-azaspiro[3.4]octane] | 0 |  | 0 | > 25 |
| COc1ccccc1C1CCN([C@H]2CCC3(C2)CN(c2ncco2)C3)CC1 (single isomer, unassigned) [Example 10I, S)-2-(6-(4-(2-methoxyphenyl)piperidin-1-yl)-2-azaspiro[3.4]octan-2-yl)oxazole or (R)-2-(6-(4-(2-methoxyphenyl)piperidin-1-yl)-2-azaspiro[3.4]octan-2-yl)oxazole] | 0 |  | 0 | > 25 |
| COc1ccccc1C1CCN([C@H]2CCC3(C2)CN(c2ncco2)C3)CC1 (single isomer, unassigned) [Example 10J, (S)-2-(6-(4-(2-methoxyphenyl)piperidin-1-yl)-2-azaspiro[3.4]octan-2-yl)oxazole or (R)-2-(6-(4-(2-methoxyphenyl)piperidin-1-yl)-2-azaspiro[3.4]octan-2-yl)oxazole] | 42 |  | 0 | 14.1 |
| FC(F)(F)Oc1ccccc1C1CCN([C@@H]2CCC3(C2)CN(c2ncco2)C3)CC1 (single isomer, unassigned) [Example 10K, (R)-2-(6-(4-(2-(trifluoromethoxy)phenyl)piperidin-1-yl)-2-azaspiro[3.4]octan-2-yl)oxazole or (S)-2-(6-(4-(2-(trifluoromethoxy)phenyl)piperidin-1-yl)-2-azaspiro[3.4]octan-2-yl)oxazole] | 0 |  | 0 | > 25 |
| FC(F)(F)Oc1ccccc1C1CCN([C@@H]2CCC3(C2)CN(c2ncco2)C3)CC1 (single isomer, unassigned) [Example 10L, (R)-2-(6-(4-(2-(trifluoromethoxy)phenyl)piperidin-1-yl)-2-azaspiro[3.4]octan-2-yl)oxazole or (S)-2-(6-(4-(2-(trifluoromethoxy)phenyl)piperidin-1-yl)-2-azaspiro[3.4]octan-2-yl)oxazole] | 44 | 13.2 | 2 | > 25 |
| FC(F)(F)Oc1ccccc1C1CCN([C@@H]2CCC3(C2)CN(c2nncs2)C3)CC1 (single isomer, unassigned) [Example 10M, (R)-2-(6-(4-(2-(trifluoromethoxy)phenyl)piperidin-1-yl)-2-azaspiro[3.4]octan-2-yl)-1,3,4-thiadiazole or (S)-2-(6-(4-(2-(trifluoromethoxy)phenyl)piperidin-1-yl)-2-azaspiro[3.4]octan-2-yl)-1,3,4-thiadiazole] | 0 | > 25 | 0 | > 25 |
| FC(F)(F)Oc1ccccc1C1CCN([C@@H]2CCC3(C2)CN(c2nncs2)C3)CC1 (single isomer, unassigned) [Example 10N, (R)-2-(6-(4-(2-(trifluoromethoxy)phenyl)piperidin-1-yl)-2-azaspiro[3.4]octan-2-yl)-1,3,4-thiadiazole or (S)-2-(6-(4-(2-(trifluoromethoxy)phenyl)piperidin-1-yl)-2-azaspiro[3.4]octan-2-yl)-1,3,4-thiadiazole] | 28 |  | 0 | > 25 |
| FC(F)Oc1ccccc1C1CCN([C@@H]2CCC3(C2)CN(c2nncs2)C3)CC1 (single isomer, unassigned) [Example 10O, (R)-2-(6-(4-(2-(difluoromethoxy)phenyl)piperidin-1-yl)-2-azaspiro[3.4]octan-2-yl)-1,3,4-thiadiazole or (S)-2-(6-(4-(2-(difluoromethoxy)phenyl)piperidin-1-yl)-2-azaspiro[3.4]octan-2-yl)-1,3,4-thiadiazole] | 17 |  | 0 | > 25 |
| COc1ccccc1C1CCN([C@@H]2CCC3(C2)CN(c2ncns2)C3)CC1 (single isomer, unassigned) [Example 10Q, (R)-5-(6-(4-(2-methoxyphenyl)piperidin-1-yl)-2-azaspiro[3.4]octan-2-yl)-1,2,4-thiadiazole or (S)-5-(6-(4-(2-methoxyphenyl)piperidin-1-yl)-2-azaspiro[3.4]octan-2-yl)-1,2,4-thiadiazole] | 18 |  | 0 | > 25 |
| COc1ccccc1C1CCN([C@@H]2CCC3(C2)CN(c2ncns2)C3)CC1 (single isomer, unassigned) [Example 10R, (R)-5-(6-(4-(2-methoxyphenyl)piperidin-1-yl)-2-azaspiro[3.4]octan-2-yl)-1,2,4-thiadiazole or (S)-5-(6-(4-(2-methoxyphenyl)piperidin-1-yl)-2-azaspiro[3.4]octan-2-yl)-1,2,4-thiadiazole] | 0 |  | 0 | > 25 |
| O=C(N1CC2(CC[C@@H](N3CCC(c4cc(F)ccc4OC4CC5(COC5)C4)CC3)C2)C1)C1(F)CC1 (single isomer, unassigned) [Example 11A, (R)-(6-(4-(2-((2-oxaspiro[3.3]heptan-6-yl)oxy)-5-fluorophenyl)piperidin-1-yl)-2-azaspiro[3.4]octan-2-yl)(1-fluorocyclopropyl)methanone or (S)-(6-(4-(2-((2-oxaspiro[3.3]heptan-6-yl)oxy)-5-fluorophenyl)piperidin-1-yl)-2-azaspiro[3.4]octan-2-yl)(1-fluorocyclopropyl)methanone] | 0 |  | 0 | > 25 |
